Data from patent publication US10647690B2, “2,3-epoxy succinyl derivative, preparation method and use thereof” (Institute of Pharmacology and Toxicology Academy of …, priority 2016, dated 2020).
Where two headings read alike, the source gives them in different places.

Experiments:
Format in all cases: biochemical
Cathepsin K = target: T1, Cathepsin K (Homo sapiens, UniProt P43235); experiment: IC50 determination against Cathepsin K (Biovision kit K150-100); settings: CTSK
T1 construct: purchased Biovision K150-100
T1 sequence (P43235 115-329): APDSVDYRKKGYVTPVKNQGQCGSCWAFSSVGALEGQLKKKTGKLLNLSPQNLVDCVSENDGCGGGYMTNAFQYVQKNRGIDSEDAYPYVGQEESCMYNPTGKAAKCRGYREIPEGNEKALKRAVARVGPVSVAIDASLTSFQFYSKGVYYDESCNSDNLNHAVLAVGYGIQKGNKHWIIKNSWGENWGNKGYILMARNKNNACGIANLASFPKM
Protocol: (§1) 2. Method for determining IC50 of compounds against cathepsin:
IC50 of compounds against Cathepsin K was determined by using Cathepsin K Inhibitor Screening Kit (Product No. K150-100) from Biovision Company;
2.1.1.1 Preparation of Cathepsin K solution: Cathepsin K enzyme (23 μl) and Cathepsin K reagent (46 μl) were added to Cathepsin K buffer (2231 μl), and mixed well, to prepare Cathepsin K enzyme solution with a volume of 2.3 ml, which was placed on ice for further use.
(§2) 2.1.2 Preparation of compound solutions: 30 mM and 10 mM compound stock solutions, and control compounds were gradiently diluted in DMSO at a ratio of 1:3, wherein the maximum dilution fold was 19683; the gradiently diluted compound solution (3 μl) was added to Cathepsin K, B, L, and S buffer (27 μl), respectively, and mixed well, wherein the control compounds (FF-FMK, F-F-FMK, FF-FMK and Z-FF-FMK) were at the concentrations of 66.67, 22.22, 7.41, 2.47, 0.82, 0.27, 0.091, 0.03, 0.01, 0.0034 and 0 μM, respectively, the test compounds were at the concentrations of 1000, 333.3, 111.1, 37, 12.3, 4.1, 1.4, 0.46, 0.15, 0.05 and 0 μM, respectively, and the final concentration of DMSO was 10%.
2.1.3.1 Cathepsin K: Cathepsin K substrate (90 μl) was added to Cathepsin K buffer (1710 μl), and mixed well, to prepare Cathepsin K substrate solution with a volume of 1.8 ml, which was placed on ice for further use.
(§3) Method for screening cathepsin inhibitors: the cathepsin solution (prepared in Item 2.1.1) was added to a 384-well plate (ProxiPlate-384 Plus, Perkinelmer) at 10 μl/well, and centrifuged at 1000 rpm for Imin; the compound solution (prepared in Item 2.1.2) was then added at 2 μl/well, and every concentration was repeated in two wells; the final concentrations of the test compounds were 100, 33.3, 11.1, 3.7, 1.23, 0.41, 0.14, 0.046, 0.015, 0.005 and 0 μM, respectively, wherein the final concentration of DMSO was 1%; after centrifugation at 1000 rpm for 1 min, the plate was put in a 25° C. incubator for 15 min; the cathepsin substrate solution was then added at 8 µl/well, and centrifuged at 1000 rpm for 1 min; and finally, the fluorescence signal was read in Enspire, wherein the exciting light was at a wavelength of 400 nm, the emitting light was at a wavelength of 505 nm, and continuous reading was performed at 37° C. for 120 min.
(§4) Data analysis: the slope (S) for all the samples was calculated by ΔRFU(RFU2−RFU1) and time ΔT(T2−T1), including negative control (Enzyme Control, EC) and positive control (Inhibitor Control, IC: 10 μM (FF-FMK, F-F-FMK, FF-FMK and Z-FF-FMK), and the calculation formula was as followed: Relative inhibition rate %=(SEC−SS)/(SEC−SIC)*100. The IC50 for each compound was obtained by means of fitting by software GraphPad Prism 5.0.

Cathepsin B = target: T2, Cathepsin B (Homo sapiens, UniProt P07858); experiment: IC50 determination against Cathepsin B (Biovision kit K147-100); settings: for Selectiviy vs Cathepsin K (fold): selectivity for Cathepsin B over Cathepsin K; for Selectiviy vs Cathepsin L (fold): selectivity for Cathepsin B over Cathepsin L; for Selectiviy vs Cathepsin S (fold): selectivity for Cathepsin B over Cathepsin S; for selectivity for Cathepsin B: statement in words, versus Cathepsin K, L, S
T2 construct: purchased Biovision K147-100
Protocol: as §1
IC50 of compounds against Cathepsin B was determined by using Cathepsin B Inhibitor Screening Kit (Product No. K147-100) from Biovision Company;
2.1.1.2 Preparation of Cathepsin B solution: Cathepsin B enzyme (23 μl) and Cathepsin B reagent (46 μl) were added to Cathepsin B buffer (2231 μl), and mixed well, to prepare Cathepsin B enzyme solution with a volume of 2.3 ml, which was placed on ice for further use.
as §2
2.1.3.2 Cathepsin B: Cathepsin B substrate (90 μl) was added to Cathepsin B buffer (1710 μl), and mixed well, to prepare Cathepsin B substrate solution with a volume of 1.8 ml, which was placed on ice for further use.
as §3, §4

Cathepsin L = target: T3, Cathepsin L (Homo sapiens, UniProt P07711); experiment: IC50 determination against Cathepsin L (Biovision kit K161-100); settings: CTSL
T3 construct: purchased Biovision K161-100
Protocol: as §1
IC50 of compounds against Cathepsin L was determined by using Cathepsin L Inhibitor Screening Kit (Product No. K161-100) from Biovision Company;
2.1.1.3 Preparation of Cathepsin L solution: Cathepsin L reagent (3 μl) was added to Cathepsin L enzyme (3 μl), mixed well, and on standing for 1 h, to get 1 mU/μl Cathepsin L enzyme solution. Cathepsin L buffer (24 μl) was added to 1 mU/μl cathepsin L enzyme solution (6 μl), to get 0.2 mU/μl Cathepsin L enzyme solution. 0.2 mU/μl cathepsin L enzyme (23 μl), and DTT (46 μl) were added to Cathepsin L buffer (2231 μl), and mixed well, to prepare Cathepsin L enzyme solution with a volume of 2.3 ml, which was placed on ice for further use.
as §2
2.1.3.3 Cathepsin L: Cathepsin L substrate (45 μl) was added to Cathepsin L buffer (1755 μl), and mixed well, to prepare Cathepsin L substrate solution with a volume of 1.8 ml, which was placed on ice for further use.
as §3, §4

[1] = Exp-1, read-out: IC50 (nM) Exp-1
[2] = Exp-2, read-out: IC50 (nM) Exp-2
[3] = average of Exp-1 and Exp-2, read-out: Ave of IC50
[4] = CTSB, Exp-1, read-out: IC50 (nM) Exp-1
[5] = CTSB, Exp-2, read-out: IC50 (nM) Exp-2
[6] = CTSB, average of Exp-1 and Exp-2, read-out: Ave of IC50
[7] = Table 3, average ± STDEV, read-out: Cathepsin B IC50

T3 sequence (P07711 114-333): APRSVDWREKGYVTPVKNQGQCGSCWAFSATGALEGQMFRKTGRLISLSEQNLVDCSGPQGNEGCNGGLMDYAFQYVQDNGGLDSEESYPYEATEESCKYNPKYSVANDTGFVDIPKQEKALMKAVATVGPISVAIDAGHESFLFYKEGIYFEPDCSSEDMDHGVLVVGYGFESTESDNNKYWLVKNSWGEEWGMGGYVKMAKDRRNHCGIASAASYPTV

Row | SMILES | IC50 (Cathepsin K; [1]) [nM] | IC50 (Cathepsin K; [2]) [nM] | IC50 (Cathepsin K; [3]) [nM] | IC50 (Cathepsin B; [4]) [nM] | IC50 (Cathepsin B; [5]) [nM] | IC50 (Cathepsin B; [6]) [nM] | IC50 (Cathepsin B; [7]) [nM] | Selectiviy vs Cathepsin K (fold) (Cathepsin B) | Selectiviy vs Cathepsin L (fold) (Cathepsin B) | Selectiviy vs Cathepsin S (fold) (Cathepsin B) | selectivity for Cathepsin B (Cathepsin B) | IC50 (Cathepsin L; [1]) [nM] | IC50 (Cathepsin L; [2]) [nM] | IC50 (Cathepsin L; [3]) [nM]
1 | CCOC(=O)[C@H]1O[C@@H]1C(=O)N[C@@H](CC(C)C)C(=O)NCCC(C)C [zxy-37, E64d, reference compound] | 488 | 465 | 477 | 10.6 | 13.5 | 12 | 12 ± 2.03 | 39 | 15 | 55 | – | 171 | 180 | 175
2 | CCOC(=O)[C@H]1O[C@@H]1C(=O)N[C@@H](CCSC)C(=O)NCCc1cccc(F)c1 [Compound 34, (2s, 3s)-2-ethoxycarbonyl-3-[2-[(s)-4-methylthio-1-carbonyl-1-(3-fluorophenylethylamino)butane]formylamino]epoxysuccinic acid] | 586 | 448 | 517 | 22.3 | 25.9 | 24.1 | 24.1 ± 2.59 | 21 | – | 167 | strong selectivity for Cathepsin B | 338 | 382 | 360
3 | CCOC(=O)[C@H]1O[C@@H]1C(=O)N[C@@H](CCSC)C(=O)N1CCC(c2ccccc2)CC1 [Compound 13, (2s, 3s)-2-ethoxycarbonyl-3-[2-[(s)-4-methylthio-1-carbonyl-1-(phenylpiperidinyl)butane]formylamino]epoxysuccinic acid] | 180 | 148 | 164 | 3.76 | 4.64 | 4.2 | 4.2 ± 0.63 | 40 | 1563 | 357 | strong selectivity for Cathepsin B | 5880 | 6630 | 6250

More lines, now with the values ahead:

Row | IC50 (Cathepsin K; [1]) [nM] | IC50 (Cathepsin K; [2]) [nM] | IC50 (Cathepsin K; [3]) [nM] | IC50 (Cathepsin B; [4]) [nM] | IC50 (Cathepsin B; [5]) [nM] | IC50 (Cathepsin B; [6]) [nM] | IC50 (Cathepsin B; [7]) [nM] | Selectiviy vs Cathepsin K (fold) (Cathepsin B) | Selectiviy vs Cathepsin L (fold) (Cathepsin B) | Selectiviy vs Cathepsin S (fold) (Cathepsin B) | selectivity for Cathepsin B (Cathepsin B) | IC50 (Cathepsin L; [1]) [nM] | IC50 (Cathepsin L; [2]) [nM] | IC50 (Cathepsin L; [3]) [nM] | SMILES
4 | 1680 | 1320 | 1500 | 7.19 | 9.33 | 8.27 | 8.27 ± 1.51 | 181 | 278 | 497 | strong selectivity for Cathepsin B | 2270 | 2330 | 2300 | CCCCCCNC(=O)[C@H](CCSC)NC(=O)[C@H]1O[C@@H]1C(=O)OCC [Compound 5, (2s, 3s)-2-ethoxycarbonyl-3-[2-[(s)-4-methylthio-1-carbonyl-1-(hexylamino)butane]formylamino]epoxysuccinic acid]
5 | 2950 | 1500 | 2220 | 17.6 | 20.7 | 19.2 | 19.2 ± 2.26 | 116 | 210 | 524 | strong selectivity for Cathepsin B | 3610 | 4450 | 4030 | CCOC(=O)[C@H]1O[C@@H]1C(=O)N[C@@H](CCSC)C(=O)NCCCc1ccccc1 [Compound 8, (2s, 3s)-2-ethoxycarbonyl-3-[2-[(s)-4-methylthio-1-carbonyl-1-(3-phenylpropylamino)butane]formylamino]epoxysuccinic acid]
6 | 1680 | 1610 | 1650 | 68.5 | 80 | 74.3 | 74.3 ± 8.18 | 22 | 129 | 193 | strong selectivity for Cathepsin B | 9250 | 9950 | 9600 | CCOC(=O)[C@H]1O[C@@H]1C(=O)N[C@@H](CCSC)C(=O)NC(CC)CC [Compound 39, (2s, 3s)-2-ethoxycarbonyl-3-[2-[(s)-4-methylthio-1-carbonyl-1-(1-ethylpropylamino)butane]formylamino]epoxysuccinic acid]
7 | 704 | 606 | 655 | 20.3 | 27.1 | 23.7 | 23.7 ± 4.78 | 28 | 185 | 149 | strong selectivity for Cathepsin B | 4160 | 4610 | 4390 | CCOC(=O)[C@H]1O[C@@H]1C(=O)N[C@@H](CCSC)C(=O)NCCCCc1ccccc1 [Compound 40, (2s, 3s)-2-ethoxycarbonyl-3-[2-[(s)-4-methylthio-1-carbonyl-1-(4-phenylbutylamino)butane]formylamino]epoxysuccinic acid]
